Experimental data as given in patent US12721833B2, “Small molecule anticancer agents, combinations and uses thereof” (University of Florida Research Foundation, Incorporated, priority 2020, dated 2026).

Key:
MDA-MB-468 cells = test: MTT cell viability assay; format: cell-based; conditions: for potency of cytotoxicity relative to tcyDTDO: MDA-MB-468 breast cancer cells, compared with tcyDTDO; for effect on cell viability: MDA-MB-468 cells, increasing concentrations (FIG. 7)
Procedure: (§1) MTT cell viability is evaluated using MTT (3-(4,5-dimethylthiazol-2-yl)-2,5-diphenyltetrazolium bromide) assays carried out based on the manufacturer's instructions (kit CGD1, Sigma-Aldrich, St. Louis, MO).

[1] = test system: DR4, DR5, HER3 oligomerization and Akt phosphorylation; test: Immunoblot analysis in MDA-MB-468 TNBC and BT474 HER2+ lines (FIG. 2B); format: cell-based; conditions: the two compounds similar
EGFR and HER2 = EGFR and HER2 levels in patient-derived breast cancer cells (FIG. 4A); format: cell-based; conditions: patient-derived cells from a TNBC (HCI-001) and a drug resistant, metastatic, HER2+ breast cancer (HCI-012/MLR)
[2] = test system: DR4, DR5, EGFR, GRP78, AGR2, XBP1s in MDA-MB-468 cells; test: Immunoblots in MDA-MB-468 cells (FIG. 9, FIG. 10); format: cell-based; conditions: for DR5 expression / ER-stress induced proteins GRP78 and AGR2: MDA-MB-468 cells (FIG. 9); for potency vs tcyDTDO in upregulating and oligomerizing DR4 and DR5 and increasing XBP1s, GRP78, and AGR2 / disulfide bond-dependent oligomerization of DR4, DR5, and EGFR: MDA-MB-468 cells; for potency vs tcyDTDO in upregulating and oligomerizing DR4 and DR5 and increasing XBP1s, GRP78, and AGR2: 2.5 mM (FIG. 10); for disulfide bond-dependent oligomerization of DR4, DR5, and EGFR: at the concentrations that induce cancer cell death (FIG. 9)
[3] = test system: DR4, DR5, and EGFR oligomerization; test: Immunoblot with inhibitors of ER acetyltransferases (FIG. 3C); format: cell-based
breast cancer cell lines = test: Cell viability assays in breast cancer cell lines (FIG. 2C, FIG. 3B); format: cell-based; conditions: increasing concentrations
Procedure: as §1

AGR2 = biological target: T1, AGR2 (Homo sapiens, UniProt O95994); test: Protein thiolate reactivity assay: biotin-tagged DDA binding to AGR2, with competitors; conditions: competition with DDAs
T1 sequence (O95994 21-175): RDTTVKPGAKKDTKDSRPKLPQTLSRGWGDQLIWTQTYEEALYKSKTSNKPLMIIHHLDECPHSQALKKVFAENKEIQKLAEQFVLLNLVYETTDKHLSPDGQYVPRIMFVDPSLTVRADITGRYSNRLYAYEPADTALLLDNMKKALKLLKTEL
Procedure: To measure DDA and NSC322072 covalent binding to AGR2, purified, recombinant AGR2 is incubated with a biotin-tagged DDA compound for 1 h at 37° C. in the presence or absence of non-biotinylated competitor DDAs or NSC322072. Reaction mixtures are boiled with SDS-PAGE sample buffer supplemented with 100 mM N-ethylmaleimide for ca. 10 minutes to block free thiolate groups remaining after the reaction. Conjugation of AGR2 by DDAs is measured by evaluating AGR2 modification in the modified immunoblot assay in Example 16.
Samples from the biotin-DDA/AGR2 reactions (Example 14) are resolved by non-reducing SDS-PAGE and transferred to nitrocellulose membranes. The membranes are blocked and analyzed by immunoblot with antibodies to AGR2 to verify addition of AGR2 protein to the assays. Anti-AGR2 primary antibody is detected with an Alkaline Phosphatase-conjugated secondary antibody. Separate, replicate membranes are probed with Streptavidin-Alkaline phosphatase. […] Both the AGR2 immunoblots and the Streptavidin-Alkaline phosphatase blots are detected using the standard Alkaline Phosphatase detection compounds, Bromo-chloro-indoyl Phosphate (BCIP)/Nitroblue Tetrazolium (NBT).

pancreatic PDX tumors = test: Treatment of mice bearing pancreatic PDX tumors (FIG. 4B); format: in vivo; conditions: separation of cancer cells from stroma and pancreatic cancer cell death
[4] = test system: human breast tumors growing in rodent models; conditions: cited from earlier work

| SMILES | potency of cytotoxicity relative to tcyDTDO (MDA-MB-468 cells) [fold] | effect on cell viability (MDA-MB-468 cells) | Akt phosphorylation [1] | DR4, DR5, and HER3 oligomerization [1] | EGFR and HER2 levels (EGFR and HER2) | DR5 expression [2] | ER-stress induced proteins GRP78 and AGR2 [2] | potency vs tcyDTDO in upregulating and oligomerizing DR4 and DR5 and increasing XBP1s, GRP78, and AGR2 [2] | disulfide bond-dependent oligomerization of DR4, DR5, and EGFR [2] | also measured |
| --- | --- | --- | --- | --- | --- | --- | --- | --- | --- | --- |
| CO[C@H]1C[C@@H]2CS(=O)(=O)SC[C@H]2C[C@@H]1OC (racemic) [DMtcyDTDO, (4aS,6S,7S,8aS)- and (4aR,6R,7R,8aR)-6,7-Dimethoxyoctahydrobenzo [d][1,2]dithiine 2,2-dioxide] | 2 | decrease the viability of the cancer cell lines in a concentration-dependent manner | decrease Akt phosphorylation | increase DR4, DR5, and HER3 oligomerization | decrease EGFR and HER2 levels | upregulate DR5 | increase the ER-stress induced proteins GRP78 and AGR2 | more potent than tcyDTDO | induce disulfide bond-dependent oligomerization of DR4, DR5, and EGFR | potency relative to TcyDTDO (MDA-MB-468 cells; FIG. 1B legend, test not stated there): twice as potent as TcyDTDO |
| O=S1(=O)CC2CC(F)C(F)CC2CS1 (racemic) [dFtcyDTDO, (4aS,6S,7S,8aS)- and (4aR,6R,7R,8aR)-6,7-Difluorooctahydrobenzo[d][1,2]dithiine 2,2-dioxide] | 2 | decrease the viability of the cancer cell lines in a concentration-dependent manner |  |  |  | upregulate DR5 | increase the ER-stress induced proteins GRP78 and AGR2 | more potent than tcyDTDO | induce disulfide bond-dependent oligomerization of DR4, DR5, and EGFR |  |
| CNC(=O)Nc1ccc2c(c1)CC[C@@]21OC(=O)N(CC(=O)N(Cc2ccc(F)cc2)[C@@H](C)C(F)(F)F)C1=O [A-485] |  |  |  |  |  |  |  |  |  | DR4, DR5, and EGFR oligomerization [3]: without effect |
| CCCCCC(C[N+]1(C)CCOCC1)C(=O)/C=C/c1ccccc1.[Br-] (stereo not drawn) [NSC322072] |  |  | decrease Akt phosphorylation | increase DR4, DR5, and HER3 oligomerization | decrease EGFR and HER2 levels |  |  |  |  | effect on cell viability (breast cancer cell lines): decrease the viability of three different breast cancer cell lines in a concentration-dependent manner; binding site on AGR2 (competition experiments) (AGR2): bind to the same site on AGR2 |
| O=S1(=O)CC2CCCCC2CS1 (stereo not drawn) [TcyDTDO] |  |  |  |  |  |  |  |  |  | effect on pancreatic PDX tumors (H&E) (pancreatic PDX tumors): causes disintegration of the tumors; in vivo anticancer activity [4]: established in vivo anticancer activity |
